Where “and” joins values, the source holds several entries; their conditions need not be identical. Equal values may be shown once.
System: Murine EMT6 breast epithelial cells
Assay: EMT6 breast epithelial syngeneic solid tumor model
Assay type: in vivo, Balb/c mice
Experimental: The in vivo anti-tumor efficacy of the TLR4 agonist (CRX-601) was assessed in the murine EMT6 breast epithelial syngeneic solid tumor model as a monotherapy versus control and anti-PD-1 treatment. Seven to eight week old female Balb/c mice (BALB/cAnNHsd, Envigo) were used in these studies. Murine EMT6 breast epithelial cells (ATCC catalog number lot # CRL-2755) were cultured in RPMI growth medium supplemented with 10% fetal bovine serum (FBS) in a humidified 37° C. incubator with 5% CO2. EMT6 cells cultured in logarithmic growth were harvested from tissue culture flasks and centrifuged for 5 minutes at 450×g at 4° C. for ten minutes to pellet cells. The supernatant was discarded, and cells were washed in ice cold phosphate buffered saline (PBS) without calcium and magnesium and centrifuged again for 5 minutes at 450×g at 4′C for ten minutes to pellet cells. The cells were resuspended in sterile RPMI media without FBS and adjusted to a cell concentration of 1×10^6 cells/ml. 100 μl of the cell stock was implanted via subcutaneous injection into the right flank of each Balb/c mouse. After seven or nine days when the average tumor size reached approximately 100 mm^3, mice were randomized into study cohorts according to tumor size and the first treatment dose was given. The TLR4 agonist (CRX-601) or vehicle was dosed via a systemic intravenous dose once per week for three total doses. The CRX-601 vehicle was 0.5% Glycerol/4% Dextrose, eE 810115-V. The rat anti-mouse PD-1 receptor antibody (clone RMP1-14, BioXCell catalog # BE0146, lot #5792-599016J1) or Rat IgG2a isotype control antibody (BioXCell catalog # BE0089,lot #601416M1B) was dosed via an intraperitoneal injection given every other day for a total of three doses, with the first dose given concurrently with the first CRX-601 dose. Caliper measurements were taken three times per week to assess tumor growth, and mice with tumors >2,000 mm^3 for 2 consecutive measurements or mice with tumors which formed open ulcers were removed from the study. Tumor volume was calculated using the formula (0.52)×(Length)×(Width2). All studies were conducted in accordance with the GSK Policy on the Care, Welfare and Treatment of Laboratory Animals and were reviewed by the Institutional Animal Care and Use Committee at GSK. To determine significance of tumor growth inhibition, tumor volumes 19 days post first dose were compared between the different treatment groups. Treatments were compared by standard ANOVA methods followed by FDR adjustment for multiplicity. Response is square root of volume, for homoscedasticity (equal variance) reasons. Kaplan-Meier (KM) method was carried out to estimate the survival probability of different treatment groups at a given time. For these survival analyses, “Death” means crossing the tumor volume cutoff (2000 mm3). “Survival” means proportion of mice not “Dead”, and “Survival time” means days until “Death”. If a mouse crossed the volume cutoff between two measurement days, then the day of “Death” was estimated by linear interpolation. If a mouse crossed the volume cutoff more than once, the first crossing was used. Treatments were compared by the standard log-rank test for two treatments. The log-rank p-values were adjusted for multiplicity using the FDR (false discovery rate) method. Significance was defined as FDR<=0.05. All calculations and graphs were done using R software, version 3.2.3.

Which results are given for `CCCCCCCCCCC[C@H](CC(=O)N[C@H]1[C@H](OC[C@H](NC(=O)C[C@@H](CCCCCCCCCCC)OCCCCCCCCCC)C(=O)O)O[C@H](CO)[C@@H](OP(=O)(O)O)[C@@H]1OC(=O)C[C@@H](CCCCCCCCCCC)OCCCCCCCCCC)OCCCCCCCCCC` [CRX-601]?
increase in survival compared to vehicle group 1 (25 ug CRX-601 IV, by day 33 post EMT6 inoculation, p-value=0.03): statistically significant; mice remained on study (25 ug CRX-601 group, day 33): 6 mice; tumor free mice (25 ug CRX-601 group, day 33): 4 mice; tumor volumes of remaining tumor-bearing mice (25 ug CRX-601 group, day 33, individual mice): 649 mm^3 and 382 mm^3; tumor growth inhibition compared to vehicle group 1 (25 ug CRX-601 intravenous once per week x3 (+200 ug Rat IgG2a), 19 days after the initial dose, p-value<0.001): statistically significant tumor growth inhibition; tumor growth inhibition compared to anti-PD-1 treatment group 3 (25 ug CRX-601 intravenous once per week x3, 19 days after the initial dose, p-value=0.041): statistically significant tumor growth inhibition

Reference: US10765690B2, “TLR4 agonists and compositions thereof and their use in the treatment of cancer” (GlaxoSmithKline Intellectual Property Development Limited, priority 2015, dated 2020)
